“And” between values parts separate entries of the source, which are not always exact repeats. Identical values can stand only once.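 Assay format: 96-well plates, 48-hour exposure. GI50 marks 50% less growth. TGI: concentration producing complete growth inhibition.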
Assays:
Experiment in all cases: NCI tumour cell line growth inhibition, 48 h
A498 renal = test system: A498 renal
MALME-3M melanoma = test system: MALME-3M melanoma
HS 578T breast = test system: HS 578T breast
SF-268 CNS = test system: SF-268 CNS
SK-MEL-28 melanoma = test system: SK-MEL-28 melanoma
TK-10 renal = test system: TK-10 renal
HOP-62 NSCLC = test system: HOP-62 NSCLC
SR leukemia = test system: SR leukemia
NCI-H226 lung = test system: NCI-H226 lung
NCI-H522 lung = test system: NCI-H522 lung

Structure (SMILES) | GI50 (A498 renal) | TGI (A498 renal) | GI50 (MALME-3M melanoma) | TGI (MALME-3M melanoma) | GI50 (HS 578T breast) | TGI (HS 578T breast) | GI50 (SF-268 CNS) | TGI (SF-268 CNS) | GI50 (SK-MEL-28 melanoma) | TGI (SK-MEL-28 melanoma) | GI50 (TK-10 renal) | TGI (TK-10 renal) | GI50 (HOP-62 NSCLC) | TGI (HOP-62 NSCLC) | GI50 (SR leukemia) | TGI (SR leukemia) | GI50 (NCI-H226 lung) | TGI (NCI-H226 lung) | GI50 (NCI-H522 lung) | TGI (NCI-H522 lung)
Cn1cc(-c2cc(-c3cn(C)c4ccc(Cl)cc34)[nH]n2)c2cc(Cl)ccc21 | 2.44 µM | 9.79 µM | 9.64 µM | 67.4 µM | 3.27 µM | 20 µM | 5.29 µM | 44.4 µM | 4.8 µM | 79.6 µM | 5.16 µM | 23.7 µM | 7.98 µM | 94.8 µM | 2.36 µM | 7.71 µM | 5.29 µM | > 100 µM | 1.75 µM | 3.84 µM
COc1cc(F)ccc1-c1cc(Nc2cc(CS(C)(=N)=O)ccn2)ncc1F (centres undefined) | 0.0713 µM | 0.392 µM | 0.2 µM |  | 0.0919 µM |  | 0.0689 µM | > 100 µM | 0.102 µM | 5.44 µM | 0.151 µM | > 100 µM | 0.0624 µM | > 100 µM | 0.0174 µM | 1.29 µM | 0.0375 µM | > 100 µM | 0.248 µM | 2.17 µM
CCCC1(CN2c3ccccc3Sc3ccc(Cl)cc32)CCN(CC)C1 (centres undefined) | 1.6 µM | 3.12 µM | 1.88 µM | 3.63 µM | 1.83 µM | 4.88 µM | 1.86 µM | 3.88 µM | 1.92 µM | 3.48 µM | 1.7 µM | 3.32 µM | 1.59 µM | 3.08 µM | 3.17 µM | > 100 µM | 1.74 µM | 3.76 µM | 1.9 µM | 3.64 µM
CCCCCCNCCCNc1c2cc(OC)ccc2nc2cccc([N+](=O)[O-])c12 | 0.227 µM | 3.6 µM and 0.462 µM | 0.179 µM | 0.199 µM and 0.422 µM | 0.242 µM | 1.47 µM and 0.786 µM | 0.261 µM | 0.418 µM and 1.01 µM | 0.305 µM | 0.474 µM and 2 µM | 0.322 µM | 0.387 µM and 0.875 µM | 0.124 µM | 0.371 µM and 0.449 µM | 0.121 µM |  | 0.38 µM | 0.716 µM and 1.41 µM | 0.0174 µM | 0.104 µM and 0.0516 µM
Nc1nc(N)c2cc(Sc3ccc4ccccc4c3)ccc2n1 |  | 17.4 µM | 1.29 µM | 2.86 µM |  | 9.17 µM |  | 4.19 µM | 1.54 µM | 2.9 µM |  | 6.33 µM |  | 4.35 µM | 0.805 µM | 5 µM |  | 18.1 µM |  | 3.36 µM
CCCc1nc(Cl)nc(Cl)c1Cl |  | 7.53 µM |  | 2.46 µM |  | 8.46 µM |  | 4.17 µM |  | 2.05 µM |  | 4.71 µM |  | 2.44 µM |  | 0.529 µM |  | 8.97 µM |  | 1.26 µM
COc1ccc2c(c1)C(=O)/C(=C/c1cccc(OCC(=O)Nc3nc(C)c(C)s3)c1)O2 | 1.75 µM | 10.7 µM | 0.322 µM | 1.03 µM | 2.94 µM |  | 0.0281 µM | 0.0743 µM | 0.504 µM | 1.72 µM | 1.03 µM | 2.8 µM | 0.0107 µM | 0.0238 µM | 0.0184 µM | 0.0364 µM | 1.85 µM | 5.27 µM | 0.0517 µM | 0.107 µM
C=C1C(=O)O[C@H]2[C@H]1CC/C(COC(=O)NCc1ccc(Cn3c(=O)sn(CCCCC)c3=O)cc1)=C\CC[C@@]1(C)O[C@@H]21 | 2.91 µM | 10.1 µM | 1.61 µM | 3.4 µM | 2.79 µM | 14 µM | 1.88 µM | 3.97 µM | 1.85 µM | 3.47 µM | 1.96 µM | 3.66 µM | 9.53 µM | 22.6 µM | 0.3 µM | 2.18 µM | 10.7 µM | 27.6 µM | 1.59 µM | 3.1 µM
COc1ccc(-c2cnnn2-c2nonc2-n2cccc2)cc1OC | 2.95 µM | 23 µM | 3.86 µM | > 100 µM | 4.55 µM | 75.7 µM | 8.06 µM | > 100 µM | 7.74 µM | > 100 µM | 22.6 µM | > 100 µM | 5.21 µM | > 100 µM | 1.9 µM | > 100 µM | 16.2 µM | > 100 µM | 2.32 µM | 11.3 µM
CCCCCCCCCc1ccc(OCCOCCOCCOCCOCCOCCOCCOCCOCCO)cc1 | 0.665 µM | 3.8 µM | 0.646 µM | 1.63 µM | 1.17 µM | 9.03 µM | 0.685 µM | 3.37 µM | 0.895 µM | 2.02 µM | 0.745 µM | 1.93 µM | 0.412 µM | 1.05 µM | 0.437 µM | 1.91 µM | 0.561 µM | 1.77 µM | 0.302 µM | 1.39 µM
N=c1ccc2nc3ccc(N)cc3sc-2c1 | 26.2 µM | > 100 µM | 6.22 µM | 32.5 µM | 20.9 µM | > 100 µM | 6.42 µM | 56.2 µM | 13.1 µM | 32.6 µM | 11.7 µM | 35.5 µM | 5.06 µM | 49.4 µM | 4.65 µM | > 100 µM | 12.4 µM | 28.2 µM | 2.24 µM | 7 µM
Cn1c(=O)n(C)c2cc(CNCCNc3ccnc4cc(Cl)ccc34)ccc21 | 1.57 µM | 27 µM | 16.6 µM | 32.9 µM | 23.8 µM | 95 µM | 29.4 µM | > 100 µM | 16 µM | 30.2 µM | 40.2 µM | > 100 µM | 39.4 µM | > 100 µM | 16.3 µM | 48.2 µM | 72 µM | > 100 µM | 30.2 µM | 93.3 µM
CC(=O)c1ccc2c(c1)N(CCCN1CCN(CCO)CC1)c1ccccc1S2 | 1.55 µM | 3.91 µM | 1.75 µM | 3.62 µM | 1.66 µM | 4.52 µM | 3.15 µM | 12.2 µM | 1.73 µM | 3.23 µM | 1.69 µM | 3.6 µM | 1.99 µM | 4.77 µM | 2.68 µM | 6.92 µM | 7.14 µM | 27.9 µM | 1.67 µM | 3.64 µM
CCOC(=O)c1sc(-c2ccc(OS(=O)(=O)C[C@]34CCC(CC3=O)C4(C)C)c(C=O)c2)nc1C | 0.127 µM | 1.17 µM | 1.08 µM | 2.65 µM | 1.32 µM | 4.23 µM | 0.954 µM | 2.47 µM | 0.982 µM | 2.12 µM | 0.721 µM | 4.48 µM | 1.21 µM | 3.27 µM | 0.66 µM | 3.27 µM | 0.943 µM | 2.72 µM | 1.02 µM | 2.89 µM
CCSc1ccc([C@@H]2[C@@H](O)C(=O)N2c2cc(OC)c(OC)c(OC)c2)cc1 | < 0.01 µM | 0.829 µM | 15.8 µM | 50.4 µM | < 0.01 µM | > 69.2 µM | 0.0504 µM | 51.7 µM | 11.7 µM | 33 µM | 17.7 µM | 84.1 µM | < 0.0125 µM | 32.5 µM | < 0.01 µM | 17.4 µM | 0.521 µM | 33.7 µM | < 0.01 µM | < 0.0119 µM
C=CC(C)(C)n1cc(C2=C(O)C(=O)C(c3cn(C(C)(C)C=C)c4ccccc34)=C(O)C2=O)c2ccccc21 |  | 34.5 µM |  | 11.1 µM |  | 5.11 µM |  | 8.15 µM |  | 35 µM |  | 10.9 µM |  | 8.43 µM |  | > 45 µM |  | 14.3 µM |  | 13 µM
COc1ccc(C2=NC(=O)NC2c2ccc(OC)cc2)cc1 (centres undefined) | 4.49 µM | 29.1 µM | 4.91 µM | 68.3 µM | 7.18 µM | 48.5 µM | 16.5 µM | > 100 µM | 14.9 µM | > 100 µM | 4.43 µM | 35.9 µM | 15.2 µM | > 100 µM | 1.63 µM | 6.91 µM | 14.8 µM | > 100 µM | 5.02 µM | 60.9 µM
CC(NC(=O)Cc1ccc(C(F)(F)P(=O)(OCc2ccc([N+](=O)[O-])o2)N(C)CCCCCl)cc1)c1ccc(OCC2CCCCC2)c(C(N)=O)c1 (centres undefined) | 1.17 µM | 24 µM | 4.62 µM | 16.3 µM | 8.21 µM | 38.4 µM | 4.8 µM | 15.5 µM | 12.2 µM | 25.9 µM | 8.01 µM | 22.2 µM | 4.08 µM | 12.1 µM | 1.76 µM | 5.03 µM | 5.52 µM | 15.1 µM | 3.86 µM | 10.2 µM
CN(Cc1ccc(F)cc1)c1ccc(CO)c(Cl)c1 | 0.0507 µM | 0.174 µM | 24.5 µM | 71.9 µM | 27.4 µM | 97.3 µM | 37.8 µM | > 100 µM | 31.3 µM | > 100 µM | 0.203 µM | 0.825 µM | 5.13 µM | > 87.6 µM | 20.3 µM | 73.8 µM | 0.126 µM | 0.278 µM | 26.5 µM | 97.3 µM
C/C(=C(/c1ccccc1)c1ccc(OCC(O)CNCCN2CCOCC2)cc1)c1ccccc1 (centres undefined) | 1.52 µM | 10.1 µM | 1.62 µM | 3.04 µM | 1.77 µM | 4.1 µM | 4 µM | 15.4 µM | 1.75 µM | 3.25 µM | 2.69 µM | 7.93 µM | 2.29 µM | 5.69 µM | 1.66 µM | 4.02 µM | 12.1 µM | 29.3 µM | 2.22 µM | 6.18 µM
c1ccc(-c2nc3n(c2-c2ccc4c(c2)OCO4)CCC3)nc1 | 5.76 µM | 20.6 µM | 8.19 µM | > 23.4 µM | 8.24 µM | > 25 µM | 7.86 µM | > 25 µM | 9.29 µM | > 22.8 µM | 1.41 µM | > 23.6 µM | 4.93 µM | > 17.6 µM | 9.49 µM | > 25 µM | 4.54 µM | 17 µM | 8.14 µM | > 25 µM
